Reference: publication PMC10488055, “Investigation of Potential cGMP-Specific PDE V and Aminopeptidase N Inhibitors of Allium ampeloprasum L. and Its Bioactive Components: Kinetic and Molecular Docking Studies” (International Journal of Molecular Sciences, 2023)
Like-named read-outs stand apart in the source and are kept apart here.

Experiments:
PDE5 = PDE5 (Homo sapiens, UniProt O76074); test: Kinetic assay (Lineweaver–Burk) on PDE5;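 as to Kcat: pure compound doses in mM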; type: biochemical; design: Vmax / Kcat: unit of the concentration uncertain; conditions: for Kik/Kiv: ratio according to Yang et al. [27]; for inhibition type against PDE5: from changes of Km and 1/Vmax (Lineweaver–Burk), putative decision system [27]; for Km value of PDE5, fold of non-treated / Vmax value of PDE5, fold of non-treated group: highest concentration; for Vmax value of PDE5, fold of non-treated group: non-treated 1.039 mU/min = 1.0-fold
Method: Lineweaver–Burk plots were employed to analyze the inhibition of the target enzyme. These plots were represented as 1/velocity (1/V) versus 1/substrate concentration (1/[S]) in the presence or absence of each sample (non-treated (black circle), 10 μg or 1 mM (orange circle), 20 μg or 2 mM (silver circle), 50 μg or 5 mM (yellow circle), and 100 μg or 10 mM (blue circle)) as an inhibitor against PDE5.
(§1) These reactions were conducted in a total volume of 80 μL. by a previously described method. The Michaelis–Menten constant (Km) and maximal velocity (Vmax) were calculated using the x and y intercepts, respectively. […] Additionally, the Kik and Kiv inhibition constants were calculated using previously described methods.

APN [1] = biological target: T1, APN (Homo sapiens, UniProt P15144); test: Kinetic assay (Lineweaver–Burk) on APN; type: biochemical; conditions: for Ki: APN; for inhibition type against APN: from Kik/Kiv ratio, new decision system [27]; for Vmax value of APN, fold of non-treated group: highest concentration, non-treated 0.316 mU/min = 1.0-fold
T1 construct: purchased Sigma-Aldrich
Method: Lineweaver–Burk plots were employed to analyze the inhibition of the target enzyme. These plots were represented as 1/velocity (1/V) versus 1/substrate concentration (1/(S)) in the presence or absence of each sample (non-treated (black circle), 10 μg or 1 mM (blue circle), 20 μg or 2 mM (green circle), 50 μg or 5 mM (orange circle), and 100 μg or 10 mM (purple circle)) as an inhibitor against APN.
as §1

aminopeptidase N (APN) = biological target: T2, aminopeptidase N (APN) (Homo sapiens, UniProt P15144); test: Aminopeptidase N (APN) enzyme activity assay with L-p-NA substrate; type: biochemical; conditions: for inhibition of APN in in vitro enzyme assay: at the highest concentration; for enzymatic activity of APN: treatment with 10 mM, without sample 0.38 U
T2 construct: purchased Sigma-Aldrich
Method: Figure 2 Effects of AAE and AAE-derived compounds on APN activity. […] The reaction was started by adding 20 μL enzyme solution (1 mU) and incubated for 60 min at 37 °C. The absorbance of samples were measured at 405 nm to determine the formation of p-nitroaniline. Each value is the mean ± SD of triplicate measurements. * p < 0.05 and ** p < 0.01, compared to each control group (Con). Con, control group treated enzyme only.
The activity of APN was determined according to Melzig et al.. Briefly, the enzyme substrate L-p-NA (2 mM) was dissolved in 50 mM N-(2-hydroxyethyl)piperazine-N’-2ethansulfonic acid (HEPES) buffer (pH 7.4) containing 154 mM NaCl. […] The reaction was started by adding 20 μL enzyme solution (approximately 1 mU in HEPES-buffer) and incubated for 60 min at 37 °C. The samples were measured spectrophotometrically at 405 nm to determine the formation of p-nitroanilmne. APN inhibitory activity (%) = ([Absorbance control without sample − Absorbance control with sample]/Absorbance control without sample) × 100

[2] = biological target: cGMP-specific PDE V (PDE5) (Homo sapiens, UniProt O76074); test: cGMP-specific PDE V (PDE5) enzyme activity assay with p-NPPPh substrate; type: biochemical
Method: Following the addition of 10 mM p-NPPPh, the reaction mixture was incubated at 37 °C for 10 min. After the incubation period, the concentration of liberated 4-nitrophenol was determined by measuring its absorbance values at a wavelength of 405 nm using a microplate reader. […] Con, control group treated enzyme only.
The specific substrate used for PDE5 was p-NPPPh, following a previously described method. The enzyme solution was prepared by adding 1 U of PDE5 to a volume of 10 μL in 40 mM Tris-HCl buffer at pH 7.4. The substrate solution (10 mM) was prepared by dissolving the substrate in Tris-HCl buffer at pH 7.4. […] Following the pretreatment, the reaction was initiated and allowed to continue for an additional 10 min at 37 °C upon the addition of 10 mM p-NPPPh in a total reaction volume of 80 μL. Following the incubation period, the absorbance of the mixture was measured at 405 nm using a microplate reader. The enzyme activity was quantified in units, where one unit corresponds to the amount of enzyme needed to hydrolyze 1 micromol of p-NPPPh. The inhibitory activity of PDE5 (%) was calculated by determining the residual activity (U). PDE5 inhibitory activity (%) = ([Residual unit control without sample − Residual unit control with sample]/Residual unit control without sample) × 100

APN [3] = biological target: T1, APN; design: method as in doi:10.1101/2021.02.26.433103; conditions: interacts with ALA474, ASP473, and SER476; cited from earlier work
[4] = PDE5 treated with compound 1 (unit uncertain)
[5] = PDE5 treated with compound 2 (unit uncertain)
[6] = PDE5 treated with compound 5 (unit uncertain)
[7] = PDE5 treated with compound 10 (unit uncertain)
[8] = APN treated with compound 10 mM
[9] = calculated by method of ref 27, read-out: Kiv

T2 sequence (P15144 whole entry, species assumed): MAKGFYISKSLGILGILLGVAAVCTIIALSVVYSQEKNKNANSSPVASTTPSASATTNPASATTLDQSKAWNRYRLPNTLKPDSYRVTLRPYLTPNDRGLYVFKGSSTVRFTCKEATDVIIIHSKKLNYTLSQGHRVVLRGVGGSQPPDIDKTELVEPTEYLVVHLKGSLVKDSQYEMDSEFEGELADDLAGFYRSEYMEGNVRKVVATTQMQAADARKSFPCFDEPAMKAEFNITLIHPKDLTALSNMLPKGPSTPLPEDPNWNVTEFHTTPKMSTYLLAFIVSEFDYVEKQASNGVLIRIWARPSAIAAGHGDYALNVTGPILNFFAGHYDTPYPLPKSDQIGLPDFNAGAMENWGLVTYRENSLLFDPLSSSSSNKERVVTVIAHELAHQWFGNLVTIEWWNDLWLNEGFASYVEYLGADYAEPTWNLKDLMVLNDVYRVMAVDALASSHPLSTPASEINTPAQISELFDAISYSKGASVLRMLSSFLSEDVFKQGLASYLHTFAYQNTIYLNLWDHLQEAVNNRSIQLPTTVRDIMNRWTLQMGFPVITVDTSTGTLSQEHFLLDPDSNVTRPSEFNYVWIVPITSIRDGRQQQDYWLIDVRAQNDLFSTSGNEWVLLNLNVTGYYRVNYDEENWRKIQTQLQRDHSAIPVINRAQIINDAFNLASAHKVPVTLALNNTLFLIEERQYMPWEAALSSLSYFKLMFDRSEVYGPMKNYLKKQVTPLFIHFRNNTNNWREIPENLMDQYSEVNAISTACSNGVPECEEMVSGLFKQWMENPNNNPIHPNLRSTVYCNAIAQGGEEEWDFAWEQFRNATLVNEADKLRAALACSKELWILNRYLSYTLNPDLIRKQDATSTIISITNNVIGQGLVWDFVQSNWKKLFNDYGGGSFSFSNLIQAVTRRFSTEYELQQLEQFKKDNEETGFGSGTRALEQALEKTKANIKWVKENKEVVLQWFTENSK
T1 sequence (P15144 whole entry, species assumed): as above

C[S@+]([O-])C[C@H](N)C(=O)O [MT, methiin]
Ki (PDE5; PDE5): 21.5 mM | Kik/Kiv (PDE5; PDE5): 3.2 | Kcat (PDE5; [4]): 6261 ± 189 k s^−1 | Vmax (PDE5; [4]): 0.828 ± 0.025 mU/min | Kcat (PDE5; [5]): 5580 ± 159 k s^−1 | Vmax (PDE5; [5]): 0.738 ± 0.021 mU/min | Kcat (PDE5; [6]): 4007 ± 98 k s^−1 | Vmax (PDE5; [6]): 0.530 ± 0.013 mU/min | Kcat (PDE5; [7]): 3673 ± 144 k s^−1 | Vmax (PDE5; [7]): 0.486 ± 0.019 mU/min | inhibition type against PDE5 (PDE5): uncompetitive-type | Km value of PDE5, fold of non-treated (PDE5): 0.74 fold | Vmax value of PDE5, fold of non-treated group (PDE5): 0.47 fold | Kcat (APN [1]; APN treated with compound 1 mM): 367.0 ± 3.7 s⁻¹ | Vmax (APN [1]; APN treated with compound 1 mM): 0.296 ± 0.003 mU/min | Kcat (APN [1]; APN treated with compound 2 mM): 310.6 ± 6.2 s⁻¹ | Vmax (APN [1]; APN treated with compound 2 mM): 0.250 ± 0.005 mU/min | Kcat (APN [1]; APN treated with compound 5 mM): 246.8 ± 3.7 s⁻¹ | Vmax (APN [1]; APN treated with compound 5 mM): 0.199 ± 0.003 mU/min | Kcat (APN [1]; [8]): 218.9 ± 2.5 s⁻¹ | Vmax (APN [1]; [8]): 0.176 ± 0.002 mU/min | Ki (APN [1]; [9]): 12.6 mM | Ki (APN [1]; read-out: Ki): 13.4 mM | inhibition type against APN (APN [1]): noncompetitive-type | Vmax value of APN, fold of non-treated group (APN [1]): 0.56 fold | inhibition of APN in in vitro enzyme assay (aminopeptidase N (APN)): 32% | enzymatic activity of APN (aminopeptidase N (APN)): 0.26 ± 0.02 U | IC50 [2]: 7.56 mM | reduction of PDE5 enzymatic activity ([2]; range over 1, 2, 5, and 10 mM): 24.83–53.90%

O=c1c(O)c(-c2ccc(O)c(O)c2)oc2cc(O)cc(O)c12 [QUE, quercetin]
Kik/Kiv (PDE5; PDE5): 9.4 | Kcat (PDE5; [4]): 5473 ± 234 k s^−1 | Vmax (PDE5; [4]): 0.724 ± 0.031 mU/min | Kcat (PDE5; [5]): 5187 ± 166 k s^−1 | Vmax (PDE5; [5]): 0.686 ± 0.022 mU/min | Kcat (PDE5; [6]): 2893 ± 60 k s^−1 | Vmax (PDE5; [6]): 0.383 ± 0.008 mU/min | Kcat (PDE5; [7]): 1478 ± 38 k s^−1 | Vmax (PDE5; [7]): 0.195 ± 0.005 mU/min | inhibition type against PDE5 (PDE5): uncompetitive-type | Km value of PDE5, fold of non-treated (PDE5): 0.69 fold | Vmax value of PDE5, fold of non-treated group (PDE5): 0.19 fold | Kcat (APN [1]; APN treated with compound 1 mM): 368.1 ± 6.2 s⁻¹ | Vmax (APN [1]; APN treated with compound 1 mM): 0.297 ± 0.005 mU/min | Kcat (APN [1]; APN treated with compound 2 mM): 316.6 ± 7.4 s⁻¹ | Vmax (APN [1]; APN treated with compound 2 mM): 0.255 ± 0.006 mU/min | Kcat (APN [1]; APN treated with compound 5 mM): 244.1 ± 3.7 s⁻¹ | Vmax (APN [1]; APN treated with compound 5 mM): 0.197 ± 0.003 mU/min | Kcat (APN [1]; [8]): 212.3 ± 2.5 s⁻¹ | Vmax (APN [1]; [8]): 0.171 ± 0.002 mU/min | Ki (APN [1]; [9]): 11.8 mM | Ki (APN [1]; read-out: Ki): 13.2 mM | inhibition type against APN (APN [1]): noncompetitive-type | Vmax value of APN, fold of non-treated group (APN [1]): 0.54 fold | IC50 (aminopeptidase N (APN)): > 10 mM | inhibition of APN in in vitro enzyme assay (aminopeptidase N (APN)): 33% | enzymatic activity of APN (aminopeptidase N (APN)): 0.25 ± 0.01 U | interaction energy with APN (docking) (APN [3]): -6.9 kcal/mol
